In US7767240B2, “Microbiological control in poultry processing” (priority 2001, dated 2010):
Where “and” joins values, the source holds several entries; their conditions need not be identical. Identical values can stand only once.

How the values were obtained:
Type in all cases: cell-based
[1] = tested on: Pseudomonas aeruginosa (ATCC 15442) biofilm; test: MBEC biofilm eradication test (Calgary biofilm device); details: one-hour biocide contact time; for MBEC (minimum biofilm eradication concentration): individual determinations
Excerpt: Table 45 summarizes test results performed at MBEC Biofilm Technologies, Inc., Calgary, Canada on the effectiveness of various biocides on biofilm removal. The test procedure, developed at the University of Calgary, utilizes a device which allows the growth of 96 identical biofilms under carefully controlled conditions. The device consists of a two-part vessel comprised of an upper plate containing 96 pegs that seals against a bottom plate. The bottom plate can consist of either a trough (for biofilm growth) or a standard 96-well plate (for biocide challenge). The biofilms develop on the 96 pegs. The device has been used as a general method for evaluating the efficacy of antibiotics and biocides towards biofilms. See in this connection H. Ceri, et al., “The MBEC Test: A New In Vitro Assay Allowing Rapid Screening for Antibiotic Sensitivity of Biofilm”, Proceedings of the ASM, 1998, 89, 525; Ceri, et al., “Antifungal and Biocide Susceptibility testing of Candida Biofilms using the MBEC Device”, Proceedings of the Interscience Conference on Antimicrobial Agents and Chemotherapy, 1998, 38, 495; and H. Ceri, et al., “The Calgary Biofilm Device: A New Technology for the Rapid Determination of Antibiotic Susceptibility of Bacterial Biofilms”, Journal of Clinical Microbiology, 1999, 37, 1771-1776.
Six biocide systems were evaluated using the above test procedure and test equipment. Five of these systems were oxidizing biocides, viz., chlorine (from NaOCl), halogen (from NaOCl+NaBr), halogen (from BCDMH), bromine (from DBDMH), and chlorine (from trichloroisocyanuric acid), all expressed as bromine as Br2 in mg/L, so that all test results were placed on the same basis. The sixth biocide was glutaraldehyde, a non-oxidizing biocide.
These biocide systems were used to challenge biofilms of Pseudomonas aeruginosa (ATCC 15442). This is a Gram (−) bacterium which is ubiquitous in microbiological slimes found in many water systems. See in this connection J. W. Costerton and H. Anwar, “Pseudomonas aeruginosa: The Microbe and Pathogen”, in Pseudomonas aeruginosa Infections and Treatment, A. L. Baltch and R. P. Smith editors, Marcel Dekker publishers, New York, 1994. In the field of poultry processing, S. Notermans, J. Dormans, and G. C. Mead, Biofouling, 1991, Vol. 5, pages 21-36, report observation of biofilms in poultry slaughter houses by use of scanning electron microscopy.
In Table 45 the MBEC (minimum biofilm eradication concentration) results presented are for the one-hour biocide contact time used in the test. The values given for the halogen containing biocides are expressed in terms of mg/L of bromine as Br2. The data on the glutaraldehyde is in terms of mg/L as active ingredient. […] In fact, only slightly more than one-half as much bromine from DBDMH was required to remove the biofilm as compared to the total halogen, expressed as Br2, that was required from BCDMH.

[2] = tested on: Escherichia coli field strain; test: Carcass total bacteria count after 1.5-hour chill tank immersion (Example 1); details: average of 10 birds; for Mean Bacteria Reduction (carcass): 1.5 h chill tank
Excerpt: (§1) The effect of these treatments on the residual chill tank water was also investigated. Carcasses were first immersed in a warm bath containing 10^4 E coli per mL of liquid. Carcasses were then immersed in chill tanks containing normal organic fluids (blood, fat, skin, and meat particles) and containing one of the respective microbiocidal compositions under test. Total bacteria count of whole bird (both inside and outside) was used to determine efficacy of various microbiocidal compositions. […] Albemarle Corporation). The trial events and experimental design used were as follows: • a) For all treatments a total of 190 birds were processed in a normal fashion. […] This was best done by grasping the broiler carcass with one hand and the closed top of the bag with the other then rocking with a reciprocal motion in a 18-24 inch arc, assuring that all carcass surfaces (interior and exterior) were rinsed. • h) The rinse solutions were then transferred from each stomacher bag into individual sample bottles, taking care to ensure that the information on the date of collection, time of collection, and treatment group matched that of the sample. Each bottle was sealed with parafilm and stored in a refrigerator. • i) Dilution of the fluids was conducted such that a 25-250 count was present on the MacConkey plate. […] Poultry carcass microbial contamination measurement was achieved by the complete washing of the entire carcass surface (inside and outside) using suitable sterile stripping solution followed by collection and plating of the stripping solution for bacterial enumeration.

[3] = tested on: Escherichia coli field strain; test: Chill water bacteria count (Example 1); details: bacteria count per mL of treatment water
Excerpt: as §1

[4] = 50 ppm Cl2 equivalent (Aquatize: 50 ppm sodium chlorite)
[5] = 100 ppm Cl2 equivalent (Aquatize: 100 ppm sodium chlorite)
[6] = 150 ppm Cl2 equivalent (Aquatize: 150 ppm sodium chlorite)

[Na+].[O-]Cl [NaOCl]
MBEC, avg. [1]: 3.8 mg/L of bromine as Br2
MBEC (minimum biofilm eradication concentration) [1]: 5.0 mg/L of bromine as Br2 and 2.5 mg/L of bromine as Br2

O=CCCCC=O [Glutaraldehyde, glutaraldehyde]
MBEC, avg. [1]: 50 mg/L as active ingredient
MBEC (minimum biofilm eradication concentration) [1]: 50, 50 mg/L as active ingredient

O=c1n(Cl)c(=O)n(Cl)c(=O)n1Cl [Trichloroisocyanuric acid, trichloroisocyanuric acid]
MBEC, avg. [1]: 2.0 mg/L of bromine as Br2
MBEC (minimum biofilm eradication concentration) [1]: 2.6 mg/L of bromine as Br2 and 1.3 mg/L of bromine as Br2

[Br-].[Na+] [Sodium bromide, sodium bromide]
Mean Bacteria Reduction (carcass) ([2]; 50 ppm Cl2 equivalent (Aquatize: 50 ppm sodium chlorite), control carcass 2.67 × 10^5 total count): 92
Mean Bacteria Reduction Count (carcass) [2, 4]: 92
Percent Bacteria Reduction From Control (carcass) [2, 4]: 0.034%
Mean Bacteria Reduction (carcass) [2, 5]: 6.54 × 10^2
Mean Bacteria Reduction Count (carcass) [2, 5]: 654
Percent Bacteria Reduction From Control (carcass) [2, 5]: 0.245%
Mean Bacteria Reduction (carcass) [2, 6]: 1.73 × 10^3
Mean Bacteria Reduction Count (carcass) [2, 6]: 1,730
Percent Bacteria Reduction From Control (carcass) [2, 6]: 0.648%
Chill Water Bacteria Count (Mean Bacteria Reduction) ([3]; 50 ppm Cl2 equivalent (Aquatize: 50 ppm sodium chlorite), negative control 5.11 × 10^3): 4.67 × 10^3 per mL
Chill Water Bacteria Count (Mean Bacteria Reduction) [3, 5]: 3.49 × 10^3 per mL
Chill Water Bacteria Count (Mean Bacteria Reduction) [3, 6]: 2.23 × 10^3 per mL
